Measurements from paper PMC5653977 (EMBO Molecular Medicine, 2017).

Each molecule was assayed on NRG1-ERBB4 signaling (assay: Nrg1-ERBB4-PIK3R1 split TEV co-culture compound screen of the NIH Clinical Collection). Conditions: not given.
Type: cell-based, human
Source text: For our HTS‐compatible split TEV assay approach, human full‐length ERBB4‐Cyt1 was fused to the NTEV fragment, a TEV protease cleavage site (tevS) and the artificial co‐transcriptional activator Gal4‐VP16 (ERBB4‐NTEV‐tevS‐GV); human PIK3R1 was fused to the CTEV fragment (PIK3R1‐CTEV) (Fig 1A). Upon ERBB4 activation, PIK3R1 is recruited to the receptor resulting in a reconstituted protease activity that cleaves off GV. In turn, released GV translocates to the nucleus and binds to upstream activating sequences (UAS) to activate the transcription of a firefly luciferase reporter gene (Fig 1A). A constitutively expressed Renilla luciferase driven under the control of the human thymidine kinase (TK) promoter was used as control to address off‐target effects related to toxicity.
For small molecule screening, the NIH‐NCC Clinical Collection library (sets NCC‐003 and NCC‐201) was used containing 727 small molecules that are FDA‐approved and have a history in clinical applications (www.nihclinicalcollection.com). A Hamilton Labstar robot connected to 37 and 4°C incubators for cell incubation and compound storage and application (Cytomat automated incubator, ThermoScientific) and to a luciferase reader (Berthold Technologies) was used to automatically perform the screening. […] Each batch was screened three times.
For one 96‐well plate, 4 × 10^6 PC12 cells were harvested and diluted in 5 ml assay medium (phenol red‐free DMEM (low glucose, Life Technologies), 10% FCS, 5% HS, no antibiotics). The split TEV assay plasmids (2 μg pcDNA3_ERBB4‐NTEV‐tevS‐GV‐2xHA, 2 μg pTag4C_PIK3R1‐CTEV‐2xHA, 2 μg p5xUAS_firefly luciferase, 2 μg pTK_Renilla luciferase, and 0.5 μg pECFP‐C1 for examining transfection efficiency) were diluted in 2.5 ml Opti‐MEM (Life Technologies) and vortexed. In parallel, 20 μl of the transfection reagent Lipofectamine 2000 was diluted in 2.5 ml Opti‐MEM and vortexed.
For plating of one 96‐well plate, 10 ml suspension, containing the 4 × 10^6 in solution‐transfected cells, was placed in the bubble paddle reservoir of the Hamilton Cellstar robot. 100 μl was seeded per 96‐well using the 96‐tip pipetting head. The homogeneity of the cell suspension was guaranteed over time by mild stirring using the paddling device inside the reservoir. For five plates each, 50 ml of additional cell suspension was used to allow for losses of inaccessible volume.
The cells were allowed to express the plasmids for 24 h before compounds were added. Proper expression and transfection efficiency were verified by ECFP expression on a clear control plate. The compounds were applied in a final concentration of 10 μM using DMSO as diluent. […] Thirty minutes later, 10,000 Nrg1‐expressing PC12 cells in 100 μl assay medium were seeded on top. 24 h after addition of the compounds, the cells were lysed using 40 μl Passive Lysis buffer (Promega) and subjected to a Dual Luciferase Assay (Promega) according to the manufacturer's instructions. The data were analyzed in R Bioconductor using the package cellHTS2 (http://www.bioconductor.org/packages/devel/bioc/html/cellHTS2.html), assessed using the z‐score, and visualized using the program Mondrian (http://stats.math.uni-augsburg.de/mondrian/).

SMILES | Z-SCORE
Cl.Nc1c2c(nc3ccccc13)CCCC2 | 1.29
CNC(=N)NCCC[C@H](N)C(=O)O | -0.42

Same assay, conditions: NIH Clinical Collection NCC-003 raw data; compounds ranked by Z-score; 'flagged' given instead of a Z-score

SMILES | Z-SCORE
Nc1ccn([C@@H]2O[C@H](CO)[C@@H](O)[C@@H]2O)c(=O)n1 | -1.99
COc1ccc(/C=C/C(=O)Nc2ccccc2C(=O)O)cc1OC | -1.17
Br.COc1ccc2c(c1)[C@@]13CCCC[C@H]1[C@@H](C2)N(C)CC3 | -1.1

Same assay, conditions: compound screen of the NIH Clinical Collection, sheet raw data NCC-003; compounds ranked by Z-score

SMILES | Z-SCORE
Cc1ncc([N+](=O)[O-])n1CC(C)O (stereo not drawn) | 1.35
CN1CCN(CCCN2c3ccccc3Sc3ccc(Cl)cc32)CC1 | -0.47
Cl.Nc1c2c(nc3c1CCC3)CCCC2 | -0.08
Clc1cccc(Cl)c1NC1=NCCN1 | 0.34
CC(C)c1ccc2c(c1)c(SC(C)(C)C)c(CC(C)(C)C(=O)O)n2Cc1ccc(Cl)cc1 | 0.23
C[C@]12CC[C@@H]3c4ccc(OS(=O)(=O)[O-])cc4CC[C@H]3[C@@H]1CCC2=O.[Na+] | 0.37
O=C1N(c2ccccc2)c2ccccc2C1(Cc1ccncc1)Cc1ccncc1 | -0.78
Cc1c(O)c(=O)ccn1C | 0.19
CCc1oc2ccccc2c1C(=O)c1cc(Br)c(O)c(Br)c1 | 0.47
COc1cc(-c2ccc(=O)[nH]n2)ccc1OC(F)F | 0.32
O=C(NCCN1CCOCC1)c1ccc(Cl)cc1 | -0.92
O=C1N[C@H](C(=O)O)CS1 | 0.84
CCN(CC)CC1CCCCN1CC(=O)N1c2ccccc2C(=O)Nc2cccnc21 (stereo not drawn) | 1
CS(=O)(=O)O.O=C1CC2(CCCC2)CC(=O)N1CCNCC1COc2ccccc2O1 (stereo not drawn) | 0.35
Clc1ccc2c(c1)CCc1cccnc1C2=C1CCNCC1 | 0.4
CO[C@H]1O[C@@H]2O[C@@]3(C)CC[C@H]4[C@H](C)CC[C@@H]([C@H]1C)[C@@]24OO3 | -1.01
OC[C@H]1O[C@@H](n2cnc3c(N[C@H]4CCC[C@@H]4O)ncnc32)[C@H](O)[C@@H]1O | -0.71
O=C([O-])Cc1ccccc1Nc1c(Cl)cccc1Cl.[Na+] | 0.02
Oc1cc2c(cc1O)[C@@H]1c3ccccc3CN[C@H]1CC2 | 0.99

SMILES | Z-SCORE
C=CC1=C(C(=O)O)N2C(=O)[C@@H](NC(=O)/C(=N\O)c3csc(N)n3)[C@H]2SC1 | 0.68
C[C@]12C=CC(=O)C=C1CC[C@@H]1[C@@H]2[C@@H](O)C[C@@]2(C)[C@H]1CC[C@]2(O)C(=O)COC(=O)CCC(=O)[O-].[Na+] | 0.67
C[C@H](N[C@@H](CCc1ccccc1)C(=O)O)C(=O)N1CCC[C@H]1C(=O)O | -0.43
CC(=O)SCC(Cc1ccccc1)C(=O)NCC(=O)OCc1ccccc1 (stereo not drawn) | 0
CCC(C)(C)NC(=Nc1cccnc1)NC#N | 0.49
CN(Cc1cnc2nc(N)nc(N)c2n1)c1ccc(C(=O)N[C@@H](CCC(=O)O)C(=O)O)cc1 | 0.85
CC[C@@H](C(N)=O)N1CCCC1=O | -0.28
CC1(C)S[C@@H]2[C@H](/N=C/N3CCCCCC3)C(=O)N2[C@H]1C(=O)O | 1.1
Cc1cccc(CCN2CCC(C(=O)c3ccc(NS(C)(=O)=O)cc3)CC2)n1.Cl.Cl | -0.17
CC(=O)NCCCCCCNC(C)=O | 1.08
CCOC(=O)C1(CCCCCCOc2ccc(Cl)cc2)CO1 (stereo not drawn) | 0.96
N=C(N)NC(=O)c1nc(Cl)c(N)nc1N | 0.85
CN1CC(=O)N2[C@H](c3ccc4c(c3)OCO4)c3[nH]c4ccccc4c3C[C@@H]2C1=O | 0.97
CCCc1nc2c(C)cc(-c3nc4ccccc4n3C)cc2n1Cc1ccc(-c2ccccc2C(=O)O)cc1 | 0.38
CCN(CC)C(=S)SSC(=S)N(CC)CC | -0.22
CS(=O)(=O)c1ccc(-c2cc(Br)sc2-c2ccc(F)cc2)cc1 | 0.49
CCCCC(=O)N(Cc1ccc(-c2ccccc2-c2nnn[nH]2)cc1)[C@H](C(=O)O)C(C)C | -0.23
CC(Cc1ccccc1)(NC(=O)CN)c1ccccc1 (racemic) | 0.97
